Laboratory results published in patent US11141410B2 (MERCK SHARP & DOHME CORP., priority 2015, dated 2021).

Columns and labels:
MRSA COL (MB5393) [1] = test: TarO Inhibitor/β-Lactam Synergy Assay (growth, OD600); type: cell-based, Staphylococcus aureus; settings: for MITC95 TarO inhibitor + 4 μg/mL IPM; Bacteria: SA_MB5393: in combination with 4 μg/mL imipenem (IPM); for MITC95 TarO inhibitor + 8 μg/mL DCX; Bacteria: SA_MB5393: in combination with 8 μg/mL dicloxacillin (DCX)
In short: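 TarO inhibitors titrated 2-fold from 200 μM (2% DMSO) against MRSA COL, 5×10^5 CFU in CAMHB, with β-lactam fixed at clinical breakpoint (imipenem 4 μg/ml or dicloxacillin 8 μg/ml). Incubated 20 h at 37 °C without shaking; relative growth read as OD600.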

MRSA COL (MB5393) [2] = test: as above; type: cell-based; settings: Staphylococcus aureus, TarO inhibitor alone, >200 μM = 95% growth inhibition not achieved, 20 hours at 37° C., read-out: MITC95 TarO inhibitor alone, Bacteria: SA_MB5393

Compound | MITC95 TarO inhibitor + 4 μg/mL IPM; Bacteria: SA_MB5393 (MRSA COL (MB5393) [1]) | MITC95 TarO inhibitor + 8 μg/mL DCX; Bacteria: SA_MB5393 (MRSA COL (MB5393) [1]) | IC95 (MRSA COL (MB5393) [2])
CCOc1ccccc1CNC(=O)N1C(=O)O[C@H](c2cc(F)cc(C(F)(F)F)c2)[C@@H]1C [Example 13, (4S,5R)-N-(2-ethoxybenzyl)-5-[3-fluoro-5-(trifluoromethyl)phenyl]-4-methyl-2-oxo-1,3-oxazolidine-3-carboxamide] | 0.06 µM | 0.35 µM | > 200 µM
Cc1cnc(F)c(CNC(=O)N2C(=O)O[C@H](c3cc(C(F)(F)F)cc(C(F)(F)F)c3)[C@@H]2C)c1 [Example 35, (4S,5R)-5-[3,5-bis(trifluoromethyl)phenyl]-N-[(2-fluoro-5-methylpyridin-3-yl)methyl]-4-methyl-2-oxo-1,3-oxazolidine-3-carboxamide] | 0.10 µM | 0.98 µM | > 200 µM
C[C@H]1[C@@H](c2cc(C(F)(F)F)cc(C(F)(F)F)c2)OC(=O)N1C(=O)CCc1cccc2sccc12 [Example 68, (4S,5R)-3-[3-(1-benzothiophen-4-yl)propanoyl]-5-[3,5-bis(trifluoromethyl)phenyl]-4-methyl-1,3-oxazolidin-2-one] | 0.01 µM | 0.20 µM | > 200 µM
C[C@H]1[C@@H](c2cccc(OC(F)(F)F)c2)OC(=O)N1C(=O)CCc1cccc2ccccc12 [Example 69, (4S,5R)-4-methyl-3-(3-naphthalen-1-ylpropanoyl)-5-[3-(trifluoromethoxy)phenyl]-1,3-oxazolidin-2-one] | 0.11 µM | 0.39 µM | > 200 µM
C[C@H]1[C@@H](c2cc(C(F)(F)F)cc(C(F)(F)F)c2)OC(=O)N1C(=O)NCC1CCCc2ccccc21 (stereo partly drawn) [Example 19, (4S,5R)-5-[3,5-bis(trifluoromethyl)phenyl]-4-methyl-2-oxo-N-(1,2,3,4-tetrahydronaphthalen-1-ylmethyl)-1,3-oxazolidine-3-carboxamide] | 0.15 µM | 1.45 µM | > 200 µM
C[C@H]1[C@@H](c2cc(F)c(F)c(F)c2)OC(=O)N1C(=O)CCc1cncc2ccccc12 [Example 78, (4S,5R)-3-(3-isoquinolin-4-ylpropanoyl)-4-methyl-5-(3,4,5-trifluorophenyl)-1,3-oxazolidin-2-one] | 1.17 µM | – | > 200 µM
C[C@H]1[C@@H](c2cc(Br)cc(C(F)(F)F)c2)OC(=O)N1C(=O)CCc1cncc2ccccc12 [Example 88, (4S,5R)-5-[3-bromo-5-(trifluoromethyl)phenyl]-3-(3-isoquinolin-4-ylpropanoyl)-4-methyl-1,3-oxazolidin-2-one] | 1.30 µM | 6.25 µM | > 200 µM
C[C@H]1[C@@H](c2cc(C(F)(F)F)cc(C(F)(F)F)c2)OC(=O)N1C(=O)NCc1cccnc1N1CCOCC1 [Example 45, (4S,5R)-5-[3,5-bis(trifluoromethyl)phenyl]-4-methyl-N-[(2-morpholin-4-ylpyridin-3-yl)methyl]-2-oxo-1,3-oxazolidine-3-carboxamide] | 4.69 µM | 25 µM | > 200 µM
C[C@H]1[C@@H](c2cc(F)cc(C(F)(F)F)c2)OC(=O)N1C(=O)NCc1cccc2cc[nH]c12 [Example 12, (4S,5R)-5-[3-fluoro-5-(trifluoromethyl)phenyl]-N-(1H-indol-7-ylmethyl)-4-methyl-2-oxo-1,3-oxazolidine-3-carboxamide] | 0.25 µM | 1.56 µM | > 200 µM
O=C(NCc1cncc2ccccc12)N1C(=O)O[C@H](c2cc(F)cc(C(F)(F)F)c2)[C@@H]1CO [Example 57, (4S,5R)-5-[3-fluoro-5-(trifluoromethyl)phenyl]-4-(hydroxymethyl)-N-(isoquinolin-4-ylmethyl)-2-oxo-1,3-oxazolidine-3-carboxamide] | 0.33 µM | 1.56 µM | > 200 µM
Cc1cccnc1CCNC(=O)N1C(=O)O[C@H](c2cc(C(F)(F)F)cc(C(F)(F)F)c2)[C@@H]1C [Example 41, (4S,5R)-5-[3,5-bis(trifluoromethyl)phenyl]-4-methyl-N-[2-(3-methylpyridin-2-yl)ethyl]-2-oxo-1,3-oxazolidine-3-carboxamide] | 1.56 µM | 16.67 µM | > 200 µM
O=C(CCc1cncc2ccccc12)N1CC(c2cc(C(F)(F)F)cc(C(F)(F)F)c2)OC1=O (stereo not shown) [Example 76, 5-[3,5-bis(trifluoromethyl)phenyl]-3-(3-isoquinolin-4-ylpropanoyl)-1,3-oxazolidin-2-one] | 0.39 µM | – | > 200 µM
